According to patent US20030130493A1, “DNA encoding Edg7 receptor” (priority 1999, published 2003):
Each block holds one molecule with its values, some of them ahead of it.

Assays:
[1] = target: T1, human Edg7 receptor (Homo sapiens, UniProt Q9UBY5); assay: Intracellular calcium mobilization (FLIPR, fluo-3) in Edg7-transfected CHO cells; type: cell-based; parameters: expressed in transfected cells; host or cells: CHO (transient, electroporation); settings: for activity against Edg7: data not shown
T1 sequence (Q9UBY5 1-353): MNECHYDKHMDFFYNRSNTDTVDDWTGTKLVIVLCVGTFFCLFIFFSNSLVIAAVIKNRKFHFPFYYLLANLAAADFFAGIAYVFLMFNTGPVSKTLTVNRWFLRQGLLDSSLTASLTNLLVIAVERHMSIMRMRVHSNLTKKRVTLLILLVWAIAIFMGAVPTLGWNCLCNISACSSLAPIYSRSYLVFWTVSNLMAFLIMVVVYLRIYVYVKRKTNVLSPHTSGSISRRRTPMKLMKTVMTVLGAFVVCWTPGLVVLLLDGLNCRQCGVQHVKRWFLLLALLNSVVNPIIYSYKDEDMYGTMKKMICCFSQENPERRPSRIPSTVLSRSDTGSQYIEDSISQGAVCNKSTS
Description: (§1) Cells expressing the receptor of interest are plated into clear, flat-bottom, black-wall 96-well plates (Costar) at a density of 80,000-150,000 cells per well and allowed to incubate for 48 hr at 5% CO2, 37° C. The growth medium is aspirated and 100 μl of loading medium containing fluo-3 dye is added to each well. The loading medium contains: Hank's BSS (without phenol red)(Gibco), 20 mM HEPES (Sigma), 0.1 or 1% BSA (Sigma), dye/pluronic acid mixture (e.g. 1 mM Flou-3, AM (Molecular Probes) and 10% pluronic acid (Molecular Probes) mixed immediately before use), and 2.5 mM probenecid (Sigma)(prepared fresh) The cells are allowed to incubate for about 1 hour at 5% CO2, 37° C.
During the dye loading incubation the compound plate is prepared. The compounds are diluted in wash buffer (Hank's BSS (without phenol red), 20 mM HEPES, 2.5 mM probenecid) to a 4×final concentration and aliquoted into a clear v-bottom plate (Nunc). Following the incubation the cells are washed to remove the excess dye. A Denley plate washer is used to gently wash the cells 4 times and leave a 100 μl final volume of wash buffer in each well. The cell plate is placed in the center tray and the compound plate is placed in the right tray of the FLIPR. The FLIPR software is setup for the experiment, the experiment is run and the data are collected. The data are then analyzed using an excel spreadsheet program.

[2] = test system: mock (empty vector)-transfected Cos-7 cells; assay: Inositol phosphate (IP) formation in mock (empty vector)-transfected Cos-7 cells; type: cell-based; settings: 1 μM final concentration, n=4
Description: A typical protocol for the electroporation method as applied to Cos-7 cells is described as follows. Cells to be used for transfection are split 24 hours prior to the transfection to provide flasks which are subconfluent at the time of transfection. The cells are harvested by trypsinization resuspended in their growth media and counted. 5×10^6 cells are suspended in 300 μl of DMEM and placed into an electroporation cuvette. 8 μg of receptor DNA plus 8 μg of any additional DNA needed (e.g. G protein expression vector, reporter construct, antibiotic resistance marker, mock vector, etc.) is added to the cell suspension, the cuvette is placed into a BioRad Gene Pulser and subjected to an electrical pulse (Gene Pulser settings: 0.25 kV voltage, 950 μF capacitance). Following the pulse, 800 μl of complete DMEM is added to each cuvette and the suspension transferred to a sterile tube. Complete medium is added to each tube to bring the final cell concentration to 1×10^5 cells/100 μl. The cells are then plated as needed depending upon the type of assay to be performed. Edg7 receptor-mediated activation of the inositol phosphate (IP) second messenger pathways was assessed by radiometric measurement of IP products. […] 200 μL of scintillation cocktail is added to each well, and the radioactivity is determined by liquid scintillation counting.

[3] = test system: mock DNA (empty vector)-transfected CHO cells; assay: Intracellular calcium mobilization (FLIPR, fluo-3) in mock DNA-transfected CHO cells; type: cell-based, Chinese hamster; settings: mean±SEM, n=6, read-out: EC50 of increase in intracellular calcium
Description: In another method, the measurement of intracellular calcium can also be performed on a 96-well (or higher) format and with alternative calcium-sensitive indicators, preferred examples of these are: aequorin, Fluo-3, Fluo-4, Fluo-5, Calcium Green-1, Oregon Green, and 488 BAPTA. After activation of the receptors with agonist ligands the emission elicited by the change of intracellular calcium concentration can be measured by a luminometer, or a fluorescence imager; a preferred example of this is the fluorescence imager plate reader (FLIPR).
as §1
During the dye loading incubation the compound plate is prepared. […] The data are then analyzed using an excel spreadsheet program.

[4] = target: T1, human Edg7 receptor; assay: Inositol phosphate (IP) release in Edg7-transfected Cos-7, HEK293 and CHO cells; type: cell-based; parameters: expressed in transfected cells; host or cells: Cos-7, HEK293, CHO (transient, electroporation); settings: for ability to activate Edg7 (inositol phosphate formation): Cos-7 cells transfected with Edg7, varying concentrations
Description: A typical protocol for the electroporation method as applied to Cos-7 cells is described as follows. Cells to be used for transfection are split 24 hours prior to the transfection to provide flasks which are subconfluent at the time of transfection. The cells are harvested by trypsinization resuspended in their growth media and counted. 5×10^6 cells are suspended in 300 μl of DMEM and placed into an electroporation cuvette. 8 μg of receptor DNA plus 8 μg of any additional DNA needed (e.g. G protein expression vector, reporter construct, antibiotic resistance marker, mock vector, etc.) is added to the cell suspension, the cuvette is placed into a BioRad Gene Pulser and subjected to an electrical pulse (Gene Pulser settings: 0.25 kV voltage, 950 μF capacitance). Following the pulse, 800 μl of complete DMEM is added to each cuvette and the suspension transferred to a sterile tube. Complete medium is added to each tube to bring the final cell concentration to 1×10^5 cells/100 μl. The cells are then plated as needed depending upon the type of assay to be performed. Edg7 receptor-mediated activation of the inositol phosphate (IP) second messenger pathways was assessed by radiometric measurement of IP products. In a 96 well microplate format assay, cells are plated at a density of 70,000 cells per well and allowed to incubate for 24 hours. The cells are then labeled with 0.5 μCi [^3H]myo-inositol overnight at 37° C., 5% CO2. Immediately before the assay, the medium is removed and replaced with 90 μL of PBS containing 10 mM LiCl. The plates are then incubated for 15 min at 37° C., 5% CO2. Following the incubation, the cells are challenged with agonist (10 μl/well; 10×concentration) for 30 min at 37° C., 5% CO2. The challenge is terminated by the addition of 100 μL of 50% v/v trichloroacetic acid, followed by incubation at 4° C. for greater than 30 minutes. Total IPs are isolated from the lysate by ion exchange chromatography. Briefly, the lysed contents of the wells are transferred to a Multiscreen HV filter plate (Millipore) containing Dowex AG1-X8 (200-400 mesh, formate form). The filter plates are prepared adding 100μL of Dowex AG1-X8 suspension (50% v/v, water: resin) to each well. The filter plates are placed on a vacuum manifold to wash or elute the resin bed. Each well is first washed 2 times with 200 μl of 5 mM myo-inositol. Total [^3H]inositol phosphates are eluted with 75 μl of 1.2M ammonium formate/0.1M formic acid solution into 96-well plates. 200 μL of scintillation cocktail is added to each well, and the radioactivity is determined by liquid scintillation counting.

[5] = target: T1, human Edg7 receptor; assay: Calcium-activated Cl- currents in Xenopus oocytes injected with Edg7 mRNA; type: cell-based
Description: Oocytes are harvested from Xenopus laevis and injected with mRNA transcripts as previously described (Quick and Lester, 1994; Smith et al.,1997). Edg7 receptor RNA transcript is synthesized using the T7 polymerase (“Message Machine,” Ambion) from linearized plasmids or PCR products containing the complete coding region of the gene. Oocytes are injected with 1-50 ng synthetic receptor RNA and incubated for 3-8 days at 17° C. Currents are recorded under dual electrode voltage clamp (Axon Instruments Inc.) with 3 M KCl-filled glass microelectrodes having resistances of 1-2 Mohm. Unless otherwise specified, oocytes are voltage clamped at a holding potential of −80 mV. During recordings, oocytes are bathed in continuously flowing (1-3 ml/min) medium containing 96 mM NaCl, 2 mM KCl, 1.8 MM CaCl2, 1 mM MgCl2, and 5 mM HEPES, pH 7.5 (ND96). Drugs are applied either by local perfusion from a 10 μl glass capillary tube fixed at a distance of 0.5 mm from the oocyte, or by switching from a series of gravity fed perfusion lines.
Activation of the phospholipase C (PLC) pathway is assayed by applying a test compound in ND96 solution to oocytes previously injected with mRNA for the Edg7 receptor and observing inward currents at a holding potential of approximately −80 mV. The appearance of currents that reverse at −25 mV and display other properties of the Ca^++-activated Cl^− channel is indicative of receptor-activation of PLC and release of IP3 and intracellular Ca^++.
Involvement of the Gi/o class of G-proteins in GPCR-stimulated Ca^++-activated Cl^− currents is evaluated using PTX, a toxin which inactivates Gi/o G-proteins. Oocytes are injected with 25 ng PTX/oocyte and modulation of Ca^++-activated Cl^− currents by Edg7 receptor is evaluated 2-5 h subsequently.

[6] = test system: LPA receptors endogenous to oocytes; assay: Calcium-activated Cl- currents in control (uninjected) Xenopus oocytes; type: cell-based, Xenopus laevis

Molecule: O=c1ccn([C@@H]2O[C@H](COP(=O)(O)OP(=O)(O)OP(=O)(O)O)[C@@H](O)[C@H]2O)c(=O)[nH]1 [UTP]
intracellular calcium responses in Edg7- versus mock DNA-transfected cells ([1]; CHO cells, n=3): almost identical

Molecule: CCCCC/C=C\C/C=C\C/C=C\C/C=C\CCCC(=O)NCCO [anandamide]
activity against Edg7 [1]: inactive

Molecule: CCCCC[C@H](O)/C=C/[C@H]1[C@H](O)CC(=O)[C@@H]1C/C=C\CCCC(=O)O [prostaglandin E2]
activity against Edg7 [1]: inactive

Molecule: CCCCCCCCCCCCC/C=C/[C@@H](O)[C@@H](N)COP(=O)(O)O [sphingosine-1-phosphate]
activation of Edg7 receptors (intracellular calcium) ([1]; CHO cells, n=4): failed to activate
ability to activate Edg7 (inositol phosphate formation) [4]: No dose-responsiveness

Molecule: CCCCCCCCCCCCC/C=C/[C@@H](O)[C@@H](N)COP(=O)([O-])OCC[N+](C)(C)C [sphingosylphosphorylcholine]
ability to activate Edg7 (inositol phosphate formation) [4]: No dose-responsiveness

Molecule: lysophosphatidylserine
significantly different response in Edg7-expressing cells as compared to mock DNA-transfected cells ([1]; CHO cells, intracellular calcium, 10 μM): significantly different response

Molecule: platelet-activating factor
activity against Edg7 [1]: inactive

Molecule: thromboxane B4
activity against Edg7 [1]: inactive

More lines, main results first:

activity against Edg7 [1]: inactive
Molecule: CCCCCCCC/C=C\CCCCCCCC(=O)O [oleic acid]

peak intracellular calcium response in Edg7-transfected cells as compared to mock DNA-transfected cells ([1]; CHO cells, 10 μM): approximately 3 fold
average increase in IP production ([4]; Edg7-transfected Cos-7 cells, 1 μM final concentration, n=4): 3 fold
Emax of IP response ([4]; all three cell lines (Cos-7, HEK 293, CHO)): 200-300%
Molecule: CCCCCCCC/C=C\CCCCCCCC(=O)OCC(O)COP(=O)(O)O (centres unmarked) [oleoyl LPA, oleoyl lysophosphatidic acid]
average increase in IP production [2]: 2 fold
EC50 [3]: 347 ± 54 nM

concentration at which nearly maximal responses were observed ([5]; Edg7-injected oocytes, Cl- current): 100 nM
LPA response (Cl- current) after treatment with PTX ([5]; Edg7-injected oocytes, PTX 25 ng injected 2-5 h prior to recording): substantial current remained
Cl- current amplitude ([5]; oocytes injected with Edg7 mRNA, oleoyl LPA 1 μM, n=5): 1272±126 nA
inward Cl- currents, typical response ([6]; control oocytes lacking injection of foreign mRNA): 100-1000 nA
LPA response (Cl- current) after treatment with PTX ([6]; control oocytes, PTX 25 ng injected 2-5 h prior to recording): nearly abolished
Cl- current amplitude ([6]; uninjected oocytes, batch with low endogenous LPA activity, oleoyl LPA 1 μM, n=5): 18±18 nA
Molecule: Lysophosphatidic acid [LPA]

activation of Edg7 receptors (intracellular calcium) ([1]; CHO cells, n=4): agonist
increase in intracellular calcium ([1]; Edg7 receptors, CHO cells, n=4): approximately 5 fold
ability to activate Edg7 (inositol phosphate formation) [4]: partial agonist
Molecule: phosphatidic acid

activity against Edg7 [1]: inactive
Molecule: phosphatidyl choline

activity against Edg7 [1]: inactive
Molecule: sphingomyelin
